According to article PMC9269301, “Phytochemical Analysis, Antioxidant, Antimicrobial, and Cytotoxic Activity of Different Extracts of Xanthoparmelia stenophylla Lichen from Stara Planina, Serbia” (Plants, 2022):
≈ marks a conversion by molar mass, not a printed value. Marks after values point to notes of the source that are not given here.

Assays:
E. coli (isolate) = test: Microdilution with resazurin, antibacterial; assay type: cell-based, Escherichia coli; conditions: Escherichia coli, antibiotics
Protocol: (§1) The tested methanol, acetone, and n-hexane extracts, as well as the component (usnic acid) of X. stenophylla, were dissolved in 10% dimethyl sulfoxide (DMSO) and then diluted into the nutrient liquid medium. DMSO was obtained from Acros Organics (Fair Lawn, NJ, USA). Resazurin was obtained from Alfa Aesar GmbH & Co. (KG, Karlsruhe, Germany).
(§2) The antimicrobial activity of the extracts and components was tested against 19 microorganisms. The experiment involved 15 strains of bacteria (i.e., 6 standard strains: Staphylococcus aureus ATCC 6538, Bacillus subtilis ATCC 6633, Proteus mirabilis ATCC 12453, Pseudomonas aeruginosa ATCC 27853, Klebsiella pneumoniae ATCC 70063, and Escherichia coli ATCC 25922; 9 isolates: Staphylococcus aureus, Escherichia coli, Salmonella enterica, Salmonella Typhimurium, Proteus mirabilis, Klebsiella pneumoniae, Pseudomonas aeruginosa, Bacillus subtilis, and Bacillus cereus). In addition, four fungal strains (i.e., two standard strains: Candida albicans ATCC 10231 and Aspergillus niger ATCC 16888; two isolates: Saccharomyces cerevisiae and Candida albicans) were tested. All isolates were a generous gift from the Institute of Public Health, Kragujevac. The other microorganisms were provided from the collection held by the Microbiology Laboratory Faculty of Science, University of Kragujevac.
(§3) The bacterial suspensions were prepared by the direct colony method. The turbidity of the initial suspension was adjusted using a densitometer (DEN-1, BioSan, Riga, Latvia). When adjusted to the turbidity of the 0.5 McFarland’s standard (Andrews, 2005) the bacteria suspension contained approximately 10^8 colony-forming units (CFU)/mL, and the suspension of yeast contained 10^6 CFU/mL; 1:100 dilutions of the initial suspension were additionally prepared in sterile 0.85% saline. The suspensions of fungal spores were prepared by gentle stripping of spores from slopes with growing mycelia. The resulting suspensions were 1:1000 diluted in sterile 0.85% saline.
(§4) Antimicrobial activity was tested by determining the minimum inhibitory concentrations (MICs) and minimum microbicidal concentrations (MBCs) using the microdilution plate method with resazurin [56]. The 96-well plates were prepared by dispensing 100 μL of Mueller–Hinton broth for bacteria and Sabouard broth for fungi into each well. A 10 μL aliquot from the stock solution of the tested extract or component was added to the first row of the plate. Then, two-fold serial dilutions were performed using a multichannel pipette. The obtained concentration range was from 10 to 0.08 mg/mL. The method is described in detail in [76].
(§5) Each test included growth control and sterility control.
(§6) Minimum microbicidal concentrations were determined by plating 10 μL of samples from wells where no indicator color change or no mycelia growth was recorded on a nutrient agar medium. At the end of the incubation period, the lowest concentration with no growth (no colony) was defined as the minimum microbicidal concentration.

E. coli ATCC 25922 = test: Microdilution with resazurin, antibacterial; assay type: cell-based, Escherichia coli; conditions: Escherichia coli, ATCC25922, antibiotics
Protocol: as §1, §2, §3, §4, §5, §6

S. enterica (isolate) = test: microbe, parasite or virus in culture; assay type: cell-based, Salmonella enterica; conditions: Salmonella enterica, S. enterica, antibiotics
Protocol: as §1, §2, §3, §4, §5, §6

S. Typhimurium (isolate) = test: Microdilution with resazurin, antibacterial; assay type: cell-based, Salmonella Typhimurium; conditions: Salmonella enterica, antibiotics
Protocol: as §1, §2, §3, §4, §5, §6

P. mirabilis (isolate) = test: Microdilution with resazurin, antibacterial; assay type: cell-based, Proteus mirabilis; conditions: Proteus mirabilis, antibiotics
Protocol: as §1, §2, §3, §4, §5, §6

P. mirabilis ATCC 12453 = test: Microdilution with resazurin, antibacterial; assay type: cell-based, Proteus mirabilis; conditions: Proteus mirabilis, ATCC12453, antibiotics
Protocol: as §1, §2, §3, §4, §5, §6

K. pneumoniae (isolate) = test: Microdilution with resazurin, antibacterial; assay type: cell-based, Klebsiella pneumoniae; conditions: Klebsiella pneumoniae, antibiotics
Protocol: as §1, §2, §3, §4, §5, §6

K. pneumoniae ATCC 70063 = test: Microdilution with resazurin, antibacterial; assay type: cell-based, Klebsiella pneumoniae; conditions: Klebsiella pneumoniae, ATCC70063, antibiotics
Protocol: as §1, §2, §3, §4, §5, §6

P. aeruginosa (isolate) = test: Microdilution with resazurin, antibacterial; assay type: cell-based, Pseudomonas aeruginosa; conditions: Pseudomonas aeruginosa, antibiotics
Protocol: as §1, §2, §3, §4, §5, §6

P. aeruginosa ATCC 27853 = test: Microdilution with resazurin, antibacterial; assay type: cell-based, Pseudomonas aeruginosa; conditions: Pseudomonas aeruginosa, ATCC27853, antibiotics
Protocol: as §1, §2, §3, §4, §5, §6

B. subtilis (isolate) = test: Microdilution with resazurin, antibacterial; assay type: cell-based, Bacillus subtilis; conditions: Bacillus subtilis, antibiotics
Protocol: as §1, §2, §3, §4, §5, §6

B. subtilis ATCC 6633 = test: Microdilution with resazurin, antibacterial; assay type: cell-based, Bacillus subtilis; conditions: Bacillus subtilis, ATCC6633, antibiotics
Protocol: as §1, §2, §3, §4, §5, §6

B. cereus (isolate) = test: Microdilution with resazurin, antibacterial; assay type: cell-based, Bacillus cereus; conditions: Bacillus cereus, antibiotics
Protocol: as §1, §2, §3, §4, §5, §6

S. aureus (isolate) = test: Microdilution with resazurin, antibacterial; assay type: cell-based, Staphylococcus aureus; conditions: Staphylococcus aureus, antibiotics
Protocol: as §1, §2, §3, §4, §5, §6

S. aureus ATCC 6538 = test: Microdilution with resazurin, antibacterial; assay type: cell-based, Staphylococcus aureus; conditions: Staphylococcus aureus, ATCC6538, antibiotics
Protocol: as §1, §2, §3, §4, §5, §6

[1] = DPPH radical scavenging activity; assay type: biochemical; conditions: mean ± SD, triplicate
Protocol: All chemicals for the antioxidant activity test were purchased from Sigma Aldrich. All measurements were conducted in triplicate, and a Shimadzu UV-1800 spectrophotometer was used for all measurements during antioxidant activity experiments. The IC50 value was used for comparing different radical scavenging effects between investigated extracts, isolated compounds, and positive controls. […] [71] with certain modifications. […] The solution was prepared ex tempore and stored in a tinted bottle in the refrigerator until the experiments were performed. […] The reaction mixture was vortexed and allowed to incubate in the dark for one hour, after which the absorbance was measured at 517 nm relative to the blank. […] Ac stands for absorbance of the control (which contains all reagents, except the tested extract or compound), and As is the absorbance of the sample.

[2] = Hydroxyl radical scavenging activity (2-deoxyribose); assay type: biochemical; conditions: mean ± SD, triplicate
Protocol: All chemicals for the antioxidant activity test were purchased from Sigma Aldrich. All measurements were conducted in triplicate, and a Shimadzu UV-1800 spectrophotometer was used for all measurements during antioxidant activity experiments. The IC50 value was used for comparing different radical scavenging effects between investigated extracts, isolated compounds, and positive controls. The ability to inhibit non-site-specific peroxidation mediated by hydroxyl radicals for […], and XSH was determined using the method previously described in the literature. During the experiment, in a reaction mixture that contained 500 μL of 5.6 mM 2-deoxy-D-ribose in KH2PO4-NaOH buffer (50 mM, pH 7.4), 100 μL of 1.0 mM aqueous ascorbic acid, 100 μL of 1.0 mM H2O2, and 200 μL of premixed solution of 100 μM FeCl3 and […] EDTA (1:1 v/v), 100 μL of extract dissolved in water was added. The tubes were vigorously shaken, vortexed, and incubated for 30 min at 50 °C. […] The mixture was vortexed again and heated in a water bath for 30 min at 50 °C. […] Ac stands for absorbance of the control (which contains all reagents, except the tested extract or compound), and As is the absorbance of the sample.

[3] = Superoxide anion radical scavenging activity (NBT/NADH/PMS); assay type: biochemical; conditions: mean ± SD, triplicate
Protocol: All chemicals for the antioxidant activity test were purchased from Sigma Aldrich. All measurements were conducted in triplicate, and a Shimadzu UV-1800 spectrophotometer was used for all measurements during antioxidant activity experiments. The IC50 value was used for comparing different radical scavenging effects between investigated extracts, isolated compounds, and positive controls. […] [75] with modifications. […] To initiate the reaction, 0.1 mL of phenazine methosulfate (PMS) solution ([…] in 0.1 M phosphate buffer at pH 7.4) was added to each tube. The mixture was incubated at room temperature for 5 min, and then the absorbance was measured at 560 nm relative to the blank. Ascorbic acid, gallic acid, and Trolox were used as positive controls, and a decrease in absorbance indicated increased superoxide anion radical scavenging activity. […] Ac stands for absorbance of the control (which contains all reagents, except the tested extract or compound), and As is the absorbance of the sample.

S. cerevisiae (isolate) = test: Microdilution with resazurin, antifungal; assay type: cell-based, Saccharomyces cerevisiae; conditions: Saccharomyces cerevisiae, antimycotics
Protocol: as §1, §2, §3
as §4, with “[76]. […]” for “[76].”
Minimum microbicidal concentrations were determined by plating 10 μL of samples from wells where no indicator color change or no mycelia growth was recorded on a nutrient agar medium. […]

C. albicans (isolate) = test: Microdilution with resazurin, antifungal; assay type: cell-based, Candida albicans; conditions: Candida albicans, antimycotics
Protocol: as §1, §2, §3, §4, §5, §6

C. albicans ATCC 10231 = test: Microdilution with resazurin, antifungal; assay type: cell-based, Candida albicans; conditions: Candida albicans, ATCC10231, antimycotics
Protocol: as §1, §2, §3, §4, §5, §6

A. niger ATCC 16888 = test: Microdilution with resazurin, antifungal; assay type: cell-based, Aspergillus niger; conditions: Aspergillus niger, ATCC16888, antimycotics
Protocol: as §1, §2, §3, §4, §5, §6

CC1(C)S[C@@H]2[C@H](NC(=O)[C@H](N)c3ccccc3)C(=O)N2[C@H]1C(=O)O [AMP, ampicillin]
MBC (E. coli (isolate); read-out: MBC): 1.2 µg/mL (≈ 3.43 µM) | MIC (E. coli (isolate); read-out: MIC): 2.1 µg/mL (≈ 6.01 µM) | MBC (E. coli ATCC 25922; read-out: MBC): 0.5 µg/mL (≈ 1.43 µM) | MIC (E. coli ATCC 25922; read-out: MIC): 0.37 µg/mL (≈ 1.06 µM) | MBC (S. enterica (isolate); read-out: MBC): 1 µg/mL (≈ 2.86 µM) | MIC (S. enterica (isolate); read-out: MIC): 1 µg/mL (≈ 2.86 µM) | MBC (S. Typhimurium (isolate); read-out: MBC): 2 µg/mL (≈ 5.72 µM) | MIC (S. Typhimurium (isolate); read-out: MIC): 2 µg/mL (≈ 5.72 µM) | MBC (P. mirabilis (isolate); read-out: MBC): > 128 µg/mL | MIC (P. mirabilis (isolate); read-out: MIC): > 128 µg/mL | MBC (P. mirabilis ATCC 12453; read-out: MBC): 4 µg/mL (≈ 11.4 µM) | MIC (P. mirabilis ATCC 12453; read-out: MIC): 4 µg/mL (≈ 11.4 µM) | MBC (K. pneumoniae (isolate); read-out: MBC): > 128 µg/mL | MIC (K. pneumoniae (isolate); read-out: MIC): > 128 µg/mL | MBC (K. pneumoniae ATCC 70063; read-out: MBC): > 128 µg/mL | MIC (K. pneumoniae ATCC 70063; read-out: MIC): > 128 µg/mL | MBC (P. aeruginosa (isolate); read-out: MBC): > 128 µg/mL | MIC (P. aeruginosa (isolate); read-out: MIC): > 128 µg/mL | MBC (P. aeruginosa ATCC 27853; read-out: MBC): > 128 µg/mL | MIC (P. aeruginosa ATCC 27853; read-out: MIC): > 128 µg/mL | MBC (B. subtilis (isolate); read-out: MBC): 128 µg/mL (≈ 366 µM) | MIC (B. subtilis (isolate); read-out: MIC): 16 µg/mL (≈ 45.8 µM) | MBC (B. subtilis ATCC 6633; read-out: MBC): 4 µg/mL (≈ 11.4 µM) | MIC (B. subtilis ATCC 6633; read-out: MIC): 3 µg/mL (≈ 8.59 µM) | MBC (B. cereus (isolate); read-out: MBC): 6 µg/mL (≈ 17.2 µM) | MIC (B. cereus (isolate); read-out: MIC): 4 µg/mL (≈ 11.4 µM) | MBC (S. aureus (isolate); read-out: MBC): < 0.06 µg/mL | MIC (S. aureus (isolate); read-out: MIC): < 0.06 µg/mL | MBC (S. aureus ATCC 6538; read-out: MBC): 0.75 µg/mL (≈ 2.15 µM) | MIC (S. aureus ATCC 6538; read-out: MIC): 0.25 µg/mL (≈ 0.715 µM)

O=C1O[C@H]([C@@H](O)CO)C(O)=C1O [Ascorbic acid, ascorbic acid]
DPPH Radical Scavenging Activity (IC50) [1]: 6.31 ± 0.78 ^a,b,c,d µg/mL | Hydroxyl Radical Scavenging Activity (IC50) [2]: 155.91 ± 0.64 ^a,d,e µg/mL | Superoxide Anion Radical Scavenging Activity (IC50) [3]: 105.62 ± 0.84 ^c,d,e,f µg/mL

OC(Cn1cncn1)(Cn1cncn1)c1ccc(F)cc1F [FC, fluconazole]
MFC (S. cerevisiae (isolate); read-out: MFC): 7.81 µg/mL (≈ 25.5 µM) | MIC (S. cerevisiae (isolate); read-out: MIC): 7.81 µg/mL (≈ 25.5 µM) | MFC (C. albicans (isolate); read-out: MFC): 62.5 µg/mL (≈ 204 µM) | MIC (C. albicans (isolate); read-out: MIC): 62.5 µg/mL (≈ 204 µM) | MFC (C. albicans ATCC 10231; read-out: MFC): 31.2 µg/mL (≈ 102 µM) | MIC (C. albicans ATCC 10231; read-out: MIC): 31.2 µg/mL (≈ 102 µM) | MFC (A. niger ATCC 16888; read-out: MFC): 500 µg/mL (≈ 1630 µM) | MIC (A. niger ATCC 16888; read-out: MIC): 250 µg/mL (≈ 816 µM)

O=C(O)c1cc(O)c(O)c(O)c1 [Gallic acid, gallic acid]
DPPH Radical Scavenging Activity (IC50) [1]: 3.72 ± 0.65 ^a,b,c,d,e µg/mL | Hydroxyl Radical Scavenging Activity (IC50) [2]: 45.12 ± 0.51 ^a,b,c,d,e µg/mL | Superoxide Anion Radical Scavenging Activity (IC50) [3]: 68.55 ± 0.45 ^a,b,c,d,e µg/mL

Cc1c(C)c2c(c(C)c1O)CCC(C)(C(=O)O)O2 (centres unmarked) [Trolox, 6-hydroxy-2,5,7,8-tetramethylchroman-2-carboxylic acid]
DPPH Radical Scavenging Activity (IC50) [1]: 10.79 ± 0.83 ^a,b,c,d,e µg/mL | Hydroxyl Radical Scavenging Activity (IC50) [2]: 131.45 ± 0.56 ^c,e µg/mL | Superoxide Anion Radical Scavenging Activity (IC50) [3]: 135.14 ± 0.88 ^a,b,d,e,f µg/mL
